Laboratory results from PubChem BioAssay (NCI).
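The compound was tested at five concentrations on cells cultured in 96-well plates, with a 48-hour exposure period. Here, GI50 denotes the concentration required for 50% inhibition of growth. TGI denotes the concentration required for complete inhibition of growth.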

Legend:
Experiment in all cases: inhibition of tumour cell growth, NCI panel, 48 h
ACHN renal = system: ACHN renal
BT-549 breast = system: BT-549 breast
HCT-15 colon = system: HCT-15 colon
K-562 leukemia = system: K-562 leukemia
MDA-MB-435 = system: MDA-MB-435
NCI-H460 lung = system: NCI-H460 lung
OVCAR-5 ovarian = system: OVCAR-5 ovarian
SK-MEL-2 melanoma = system: SK-MEL-2 melanoma
SNB-75 CNS = system: SNB-75 CNS
U251 CNS = system: U251 CNS

Row | SMILES | TGI (ACHN renal) [µM] | TGI (BT-549 breast) [µM] | TGI (HCT-15 colon) [µM] | TGI (K-562 leukemia) [µM] | TGI (MDA-MB-435) [µM] | TGI (NCI-H460 lung) [µM] | TGI (OVCAR-5 ovarian) [µM] | TGI (SK-MEL-2 melanoma) [µM] | TGI (SNB-75 CNS) [µM] | TGI (U251 CNS) [µM] | GI50 (ACHN renal) [µM] | GI50 (BT-549 breast) [nM] | GI50 (HCT-15 colon) [µM] | GI50 (K-562 leukemia) [µM] | GI50 (MDA-MB-435) [µM] | GI50 (U251 CNS) [µM]
1 | COc1cccc(C23CCCC(C2)NCC3Br)c1OC (stereo unspecified) | 73.8 | 92.3 | > 100 | > 100 | > 100 | > 100 | > 100 | > 100 | > 100 | > 100 |  |  |  |  |  | 
2 | CCOC(=O)c1cc(-n2nnc3ccccc32)cn1C | > 10 | > 10 | > 10 | > 10 | > 10 | > 10 | > 10 | > 10 | > 10 | > 10 |  |  |  |  |  | 
3 | N#CC(N=Nc1ccccc1C(=O)O)C(N)=O (stereo unspecified) | > 100 | > 100 | > 100 | > 100 | > 100 | > 100 | > 100 | > 100 | > 100 | > 100 |  |  |  |  |  | 
4 | COC(=O)/C=C\C(C#N)(C#N)N=Cc1cccc(OC)c1 | 7.63 | 20.4 | 4.54 | > 100 | 13.5 | 40.8 | 20.1 | 32.4 | 29.6 | 32.2 |  |  |  |  |  | 
5 | COc1ccc([N+](=O)[O-])c2c(NCCCN(C)C)ccnc12 | 14.5 | 6.45 | 4.95 | 5.73 | 23.1 | 5.63 | 42.4 | 4.48 | 15.8 | 23.6 |  |  |  |  |  | 
6 | CC1(C)[C@@H]2C[C@H]1[C@@H](Cc1cccc(C[C@H]3c4cc(-c5ccccn5)ncc4[C@H]4C[C@@H]3C4(C)C)c1)c1cc(-c3ccccn3)ncc12 | > 66.6 | > 100 | > 100 | > 49.1 | > 100 | > 33.4 | > 100 | > 100 | > 100 | > 100 |  |  |  |  |  | 
7 | CC(O)C1(CNc2cc(Cl)nc(N)n2)CCCCC1 (stereo unspecified) | > 100 | > 100 | > 100 | > 100 | > 100 | > 100 | > 100 | > 100 | > 100 | > 100 |  |  |  |  |  | 
8 | COc1ccc(OC)c(NCC(=O)Nn2cnc3ccc(S(=O)(=O)Nc4cc(OC)ccc4OC)cc3c2=O)c1 | > 100 | > 100 | > 100 | > 100 | > 100 | > 100 | > 100 | > 100 | > 100 | > 100 |  |  |  |  |  | 
9 | CCOP(=O)(OCC)/C(C#N)=C/c1cccn1C(C)C | > 100 | > 100 | > 100 | > 100 | > 100 | > 100 | > 100 | > 100 | > 100 | > 100 |  |  |  |  |  | 
10 | CCCCCCCCCCCCOP(=O)(O)OP(=O)(O)OCC1OC(n2ccc(N)nc2=O)CC1O (stereo unspecified) | > 100 | > 100 | > 100 | > 100 | > 100 | > 100 | > 100 | > 100 | > 100 | > 100 |  |  |  |  |  | 
11 | Cc1cc(S(=O)(=O)N2CCNNC2=O)c(S)cc1Cl | > 100 | 64.2 | > 100 | > 100 | > 100 | > 100 | > 100 | > 100 | > 100 | > 100 |  |  |  |  |  | 
12 | S=C(N/N=C(\c1ccccc1)c1ccccn1)NC1CCCCC1 | > 100 | > 100 | > 100 | > 100 | > 100 | > 100 | > 100 | > 100 | > 100 | > 100 |  |  |  |  |  | 
13 | CCCCn1c(CSc2ccc(Cl)cc2)c(C(=O)OCC)c2cc(OC)c(Br)cc21 | > 100 | > 100 | > 100 | > 100 | > 100 | > 100 | > 100 | > 100 | > 100 | > 100 |  |  |  |  |  | 
14 | CCOC(=O)C(NC(=O)c1ccccc1)(Nc1ccc(S(=O)(=O)Nc2ncccn2)cc1)C(F)(F)F (stereo unspecified) | > 100 | > 100 | > 100 | > 100 | > 100 | > 100 | > 100 | > 100 | > 100 | > 100 |  |  |  |  |  | 
15 | CC(Oc1ccccc1Cl)C(=O)NN1C(=O)CC(=O)N(c2ccccc2)C1=S (stereo unspecified) | > 100 | > 100 | > 100 | > 100 | > 100 | > 100 | > 100 | > 100 | > 100 | > 100 |  |  |  |  |  | 
16 | CN(C)c1ccc(/C=C/c2ccc(S(N)(=O)=O)cc2)cc1 | 33.6 | 8.62 | 74.1 | > 100 | 23.7 | > 100 | 53.6 | > 100 | 62.6 | 31.7 | 13.6 | 2140 | 17.1 | > 100 | 7.63 | 11.2
17 | NNC(=O)CC(=O)Nc1cccc(Cl)c1 | > 100 | > 100 | > 100 | > 100 | > 100 | > 100 | > 100 | > 100 | > 100 | > 100 |  |  |  |  |  | 
